Assay results from US11630102B2, “Composition and method for modulating fibroblast growth factor receptor 3 activation” (ACADEMIA SINICA, priority 2017, dated 2023).
Entries after “also recorded” stand apart in the source; their conditions may differ. Read-outs that look alike come from different tables or passages of the source.

Legend:
TDI FGFR3 [1] = molecular target: T1, TDI FGFR3 (Homo sapiens, UniProt P22607, Y373C); assay: cell-based translocation assay (ring spot count, high-content imaging); settings: for inhibition of FGFR3 activation (in words): cells stably expressing SH2(SH2B)-RrGFP and TDI FGFR3
Protocol: (§2) PKC412 was prepared as a 6% (w/w) stock in DMSO. Live-cell imaging was performed at 37° C. under humidified conditions in a 5% CO2 incubator.
(§3) For high-content screening, all steps of sample-plate preparation, including compound treatment, fixation and plate washing, were fully automated and were performed using a Bio-Tek EL405uv system (Bio-Tek Instruments, Inc., Winooski, Vt., USA). U2OS cells stably expressing TDI FGFR3 and SI-12-RrGFP were seeded at a density of 4×10^3 cells/well in black 96-well Packard Viewplates, incubated overnight in complete medium at 37° C. in a CO2 incubator, and then transferred to 100 μl serum-free medium containing PKC412 or plant extract. The final DMSO concentration was 1%. After incubating for 1 hour at 37° C. in a CO2 incubator, cells were fixed with 4.5% formaldehyde and cell nuclei were labeled with a 2 μg/ml Hoechst stain solution (Sigma-Aldrich).
(§4) Cell images were automatically obtained using an ArrayScan VTI HCS Reader (Cellomics, Pittsburgh, Pa., USA). Filter sets appropriate for detecting the two fluorophores were used, and a 20×0.4 numerical aperture microscope objective was used for imaging. The Compartmental Analysis BioApplication (Cellomics) was used to analyze the images after optimization of the application's protocol settings. For these analyses, the Compartmental Analysis used the Hoechst-labeled nuclei to identify individual cells, and the nucleus (Circle) and cytoplasmic area (Ring) of the cells were defined by parameter settings in the software. The GFP spots in the Ring region were defined and the spot numbers (Ring Spot Count) and spot intensity (Ring Spot Intensity) were quantified by the software.

TDI FGFR3 [2] = molecular target: T1, TDI FGFR3
Protocol: as §2, §3, §4

[3] = solubility of Pa derivatives compared to Pa; assay type: physicochemical
KMS-11 cells = assay: KMS-11 cell proliferation assay (WST-1); assay type: cell-based, human; settings: FGFR3-dependent growth (Y373C FGFR3)
Protocol: Cell proliferation was determined by a colorimetric assay of cell viability based on the cleavage of the tetrazolium salt WST-1 (Roche) by mitochondrial dehydrogenases. Cells were grown in serum-free conditions for 24 h and then were seeded in 96-well plates at a density of 50,000 cells/well in RPMI. Cells were incubated with 1 nM aFGF and 50 μg/ml heparin and various doses of plant extracts in 200 μl RPMI at a final concentration of 1% DMSO. Plates were incubated for 72 h at 37° C., 5% CO2. The WST-1 assay was performed according to the manufacturer's instructions. The absorbance of the formazan dye formed, which correlates with the number of metabolically active cells in the culture, was measured at 450 nm and 690 nm 1 h after adding the reagent. Each experimental condition was performed in triplicate.
The effects of hit 4, hit 4-1, and hit 4-2 were examined on the growth of human myeloma cell line KMS-11 […] expressing TDI FGFR3. KMS-11 cells were stimulated with aFGF/heparin and incubated with DMSO negative control, PKC412 positive control, or 10 μg/ml and 100 μg/ml doses of each tested plant extract. Cell growth was measured as described above.
Fractions were analyzed for their ability to inhibit the FGFR3 activity-dependent growth of human myeloma cell line KMS-11 as described above in Example 3.

WT mice = assay: treatment of wild-type mice with Pa; assay type: in vivo; settings: 0.09 mg/g/mouse for 7 weeks from 7 days of age
Protocol: (§1) FGFR3^ACH/ACH mice beginning at 7 days of age were treated once-daily with 0.2 mg/g/mouse plant active fractions F4 and F4-IS11 by gavage in 200 μl PBS for 4 or 7 weeks. Control wild type littermates (WT) and FGFR3^ACH/ACH mice were treated with vehicle control. In additional studies, mice were treated with 0.09 mg/g/mouse purified Pa or vehicle control in a similar manner. Body weight and body length were measured weekly.
As mentioned above, Pa was identified as an active compound in the A. viridis extract by means of the method set forth above in Example 4. WT and FGFR3^ACH mice at 7 days of age were treated with vehicle (DMSO) or with 0.09 mg/g/mouse Pa for 7 weeks. The body weight of treated mice was measured weekly.

FGFR3^ACH/ACH mice = assay: treatment of achondroplasia mice; assay type: in vivo; settings: 0.09 mg/g/mouse for 7 weeks from 7 days of age
Protocol: Femurs of mice were dissected and the flesh was removed. The lengths of the femurs were measured using a millimetre-scale calliper ruler.
as §1
Skeletons were analyzed by […] (Skyscan 1076 system, Bruker, Brussels, Belgium) as described above.

T1 sequence (P22607 23-806 Y373C): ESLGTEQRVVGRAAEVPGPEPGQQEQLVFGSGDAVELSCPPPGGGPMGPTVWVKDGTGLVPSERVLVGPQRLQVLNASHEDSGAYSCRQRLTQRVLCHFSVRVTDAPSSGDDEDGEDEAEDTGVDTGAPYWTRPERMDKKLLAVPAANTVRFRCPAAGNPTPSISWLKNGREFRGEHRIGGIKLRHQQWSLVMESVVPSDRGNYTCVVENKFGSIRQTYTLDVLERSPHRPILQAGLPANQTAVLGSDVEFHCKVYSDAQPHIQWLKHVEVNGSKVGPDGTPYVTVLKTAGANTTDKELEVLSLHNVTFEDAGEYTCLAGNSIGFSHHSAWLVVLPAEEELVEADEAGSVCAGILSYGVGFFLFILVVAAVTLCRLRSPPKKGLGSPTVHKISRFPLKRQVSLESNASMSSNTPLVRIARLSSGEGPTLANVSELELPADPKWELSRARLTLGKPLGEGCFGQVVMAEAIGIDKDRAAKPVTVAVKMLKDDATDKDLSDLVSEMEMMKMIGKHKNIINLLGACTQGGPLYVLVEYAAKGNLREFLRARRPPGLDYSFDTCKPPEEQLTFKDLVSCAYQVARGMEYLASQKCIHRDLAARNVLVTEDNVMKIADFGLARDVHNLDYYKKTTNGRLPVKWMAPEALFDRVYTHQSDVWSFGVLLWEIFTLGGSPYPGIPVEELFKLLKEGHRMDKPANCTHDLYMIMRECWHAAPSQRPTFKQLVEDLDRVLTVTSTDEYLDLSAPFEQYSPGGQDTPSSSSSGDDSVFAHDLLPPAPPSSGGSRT

Compound	inhibition of FGFR3 activation (in words) (TDI FGFR3 [1])	also measured
NCC(=O)CCC(=O)O [5-aminolevulinic acid, reference compound]	did not	–
CO[C@@H]1[C@H](N(C)C(=O)c2ccccc2)C[C@H]2O[C@]1(C)n1c3ccccc3c3c4c(c5c6ccccc6n2c5c31)C(=O)NC4 [PKC412, reference compound]	–	time to disappearance of punctate GFP signals after treatment (TDI FGFR3 [1]; SH2(SH2B)-RrGFP and TDI FGFR3 expressing cells, not seen with DMSO): ≤ 1 h
Oc1cccc(-c2c3nc(c(-c4cccc(O)c4)c4ccc([nH]4)c(-c4cccc(O)c4)c4nc(c(-c5cccc(O)c5)c5ccc2[nH]5)CC4)C=C3)c1 [temoporfin]	–	inhibition of FGFR3 activation (in words) (TDI FGFR3 [2]): had FGFR3 inhibition activity
HCl-N-pheophorbide a [HCl-N-Pa]	comparable FGFR3 inhibition activities	solubility as compared to Pa [3]: enhanced solubility
Na-pheophorbide a [NA-Pa]	comparable FGFR3 inhibition activities	solubility as compared to Pa [3]: enhanced solubility
Pyropheophorbide a [PyroPa]	inhibit FGFR3 activation; also recorded: stronger than any of the tested photosensitizers	–

Further lines, with some results ahead:

inhibition of FGFR3 activation (in words) (TDI FGFR3 [1])	Compound	also measured
had FGFR3 inhibition activity	chlorophyllin A [reference compound]	–
inhibit FGFR3 activation	pheophorbide a [Pa]	inhibition of KMS-11 cell proliferation (KMS-11 cells): inhibited FGFR3-dependent cell proliferation; body weight vs DMSO-treated mice (WT mice): increased body weight; body weight vs DMSO-treated mice (FGFR3^ACH/ACH mice): increased body weight
had FGFR3 inhibition activity	pyropheophorbide-a methyl ester [reference compound]	–
